One test has as its system Micrococcus luteus. Description: Antibacterial activity against clinical isolate Micrococcus luteus assessed as reduction in microbial growth incubated for 24 hrs by broth microdilution method. Format: functional. A general note: In broth dilution the organism is exposed to a series of concentrations in liquid medium.
Test [1] concerns Staphylococcus epidermidis. Description: Antibacterial activity against clinical isolate Staphylococcus epidermidis assessed as reduction in microbial growth incubated for 24 hrs by broth microdilution method. Format: functional.
In the next test the test system is Staphylococcus aureus. Description: Antibacterial activity against methicillin sensitive Staphylococcus aureus ATCC 29213 assessed as reduction in microbial growth incubated for 24 hrs by broth microdilution method. Format: functional.
The next test relates to Salmonella typhimurium. Description: Antibacterial activity against Salmonella typhimurium TA100 assessed as reduction in microbial growth incubated for 24 hrs by broth microdilution method. Format: functional, Salmonella enterica subsp. enterica serovar Typhimurium. The note with it: Salmonella enterica.
In another test the test system is Pseudomonas aeruginosa. The test can be described thus: Antibacterial activity against Pseudomonas aeruginosa ATCC 27853 assessed as reduction in microbial growth incubated for 24 hrs by broth microdilution method. It counts as functional.
Another test relates to Bacillus subtilis. Description: Antibacterial activity against Bacillus subtilis 168 assessed as reduction in microbial growth incubated for 24 hrs by broth microdilution method. Format: functional.
In another test the test system is Escherichia coli. The test can be described thus: Antibacterial activity against Escherichia coli ATCC 25922 assessed as reduction in microbial growth incubated for 24 hrs by broth microdilution method. Format: functional.

The results in this text go back to ChEMBL document CHEMBL5634112, “Synthesis and biological evaluation of fluoroquinolones containing a pyridoxine derivatives moiety” (Eur J Med Chem, 2023).

What is called MIC is the lowest concentration that inhibits growth of the organism.

In the case of `CCn1cc(C(=O)O)c(=O)c2cc(F)c(N3CCN(Cc4cnc(C)c5c4COC(C)(C)O5)CC3)cc21`, the minimal inhibitory concentration (MIC) is more than 64 µg/mL with Micrococcus luteus; more than 64 µg/mL in test [1]; more than 64 µg/mL with Staphylococcus aureus; more than 64 µg/mL in the test on Salmonella typhimurium; more than 64 µg/mL in the test with Pseudomonas aeruginosa; 64 µg/mL with Bacillus subtilis. In the test with Escherichia coli, the MIC worked out at 64 µg/mL.

Consider `Cc1nc(CN2CCN(c3cc4c(cc3F)c(=O)c(C(=O)O)cn4C3CC3)CC2)c(CO)c(CO)c1O.Cl`, for which the MIC with Micrococcus luteus is 32 µg/mL; in test [1], 32 µg/mL; in the test on Staphylococcus aureus it was 64 µg/mL; in the test on Salmonella typhimurium, 4 µg/mL; in the test with Pseudomonas aeruginosa, more than 64 µg/mL; in the test on Bacillus subtilis, 2 µg/mL. Besides, the minimal inhibitory concentration (MIC) with Escherichia coli was determined as 64 µg/mL.

With `CCCC1OCc2c(CN3CCN(c4cc5c(cc4F)c(=O)c(C(=O)O)cn5C4CC4)CC3)cnc(C)c2O1` (stereo not drawn), the MIC in the test with Micrococcus luteus is 64 µg/mL; in test [1] it was 64 µg/mL; in the test with Staphylococcus aureus it was 64 µg/mL; with Salmonella typhimurium, 4 µg/mL; with Pseudomonas aeruginosa it was more than 64 µg/mL; in the test with Bacillus subtilis it was 2 µg/mL. Also, the MIC in the test on Escherichia coli was more than 64 µg/mL.

Consider `CCn1cc(C(=O)O)c(=O)c2cc(F)c(N3CCN(Cc4cnc(C)c5c4COC(C)O5)CC3)cc21` (stereo not drawn), for which the MIC with Micrococcus luteus is 64 µg/mL; in test [1], 32 µg/mL; in the test on Staphylococcus aureus, 32 µg/mL; in the test on Salmonella typhimurium it was 16 µg/mL; in the test with Pseudomonas aeruginosa, more than 64 µg/mL; in the test on Bacillus subtilis, 8 µg/mL. In the test on Escherichia coli, the MIC was more than 64 µg/mL.

Consider `CCCCCCCCC1OCc2c(CN3CCN(c4c(F)cc5c(=O)c(C(=O)O)cn(CC)c5c4F)CC3C)cnc(C)c2O1` (stereo not drawn), for which the MIC (in the test with Micrococcus luteus; in test [1]; with Staphylococcus aureus; with Salmonella typhimurium; in the test on Pseudomonas aeruginosa; in the test with Bacillus subtilis) was more than 64 µg/mL throughout. Also, the MIC in the test on Escherichia coli was more than 64 µg/mL.

With `Cc1nc(CN2CCN(c3cc4c(cc3F)c(=O)c(C(=O)O)cn4C3CC3)CC2)c(CO)c2c1OC(C)(C)OC2`, the MIC in the test on Micrococcus luteus was 8 µg/mL; in test [1], 8 µg/mL; in the test with Staphylococcus aureus, 8 µg/mL; with Salmonella typhimurium, 4 µg/mL; with Pseudomonas aeruginosa, more than 64 µg/mL; with Bacillus subtilis it was 2 µg/mL. Further, in the test on Escherichia coli, the MIC was found to be 64 µg/mL.

Regarding `Cc1ncc(CN2CCN(c3cc4c(cc3F)c(=O)c(C(=O)O)cn4C3CC3)CC2)c2c1OC(C)OC2.Cl` (stereo not drawn), the MIC was 8 µg/mL in the test on Micrococcus luteus; 8 µg/mL in test [1]; 8 µg/mL with Staphylococcus aureus; 4 µg/mL in the test on Salmonella typhimurium; more than 64 µg/mL in the test on Pseudomonas aeruginosa; 2 µg/mL with Bacillus subtilis. Further, the MIC with Escherichia coli was more than 64 µg/mL.

For the compound `CCCCCCCCC1OCc2c(CN3CCC[C@H]4CN(c5c(F)cc6c(=O)c(C(=O)O)cn(C7CC7)c6c5OC)C[C@H]43)cnc(C)c2O1` (stereo partly drawn), the MIC was 16 µg/mL in the test on Micrococcus luteus; 32 µg/mL in test [1]; 16 µg/mL in the test on Staphylococcus aureus; 16 µg/mL with Salmonella typhimurium; more than 64 µg/mL in the test with Pseudomonas aeruginosa; 8 µg/mL in the test with Bacillus subtilis. In addition, the MIC in the test with Escherichia coli is more than 64 µg/mL.

As to `CCn1cc(C(=O)O)c(=O)c2cc(F)c(N3CCN(Cc4cnc(C)c5c4COCO5)C(C)C3)c(F)c21.Cl` (stereo not drawn), the MIC is 32 µg/mL with Micrococcus luteus; 16 µg/mL in test [1]; 8 µg/mL in the test with Staphylococcus aureus; 4 µg/mL in the test with Salmonella typhimurium; more than 64 µg/mL in the test with Pseudomonas aeruginosa; 4 µg/mL in the test on Bacillus subtilis. Also, in the test on Escherichia coli, the MIC was determined as 16 µg/mL.

With `CCn1cc(C(=O)O)c(=O)c2cc(F)c(N3CCN(Cc4nc(C)c(O)c(CO)c4CO)CC3)cc21.Cl`, the MIC in the test with Micrococcus luteus is 8 µg/mL; in test [1], 32 µg/mL; with Staphylococcus aureus it was 8 µg/mL; in the test on Salmonella typhimurium, 16 µg/mL; with Pseudomonas aeruginosa, more than 64 µg/mL; in the test with Bacillus subtilis, 4 µg/mL. Moreover, the MIC with Escherichia coli was more than 64 µg/mL.

As for `CCn1cc(C(=O)O)c(=O)c2cc(F)c(N3CCN(Cc4nc(C)c(O)c(CO)c4CO)C(C)C3)c(F)c21.Cl` (stereo not drawn), the MIC in the test with Micrococcus luteus was 64 µg/mL; in test [1], 64 µg/mL; in the test with Staphylococcus aureus, 2 µg/mL; in the test with Salmonella typhimurium, 2 µg/mL; in the test on Pseudomonas aeruginosa, more than 64 µg/mL; in the test on Bacillus subtilis, 2 µg/mL. In addition, the MIC in the test on Escherichia coli came to 2 µg/mL.

For `CCn1cc(C(=O)O)c(=O)c2cc(F)c(N3CCN(Cc4cnc(C)c(O)c4CO)CC3)cc21.Cl`, the MIC is 32 µg/mL in the test with Micrococcus luteus; 32 µg/mL in test [1]; 16 µg/mL in the test on Staphylococcus aureus; 4 µg/mL in the test with Salmonella typhimurium; more than 64 µg/mL in the test with Pseudomonas aeruginosa; 4 µg/mL in the test with Bacillus subtilis. In addition, the MIC in the test with Escherichia coli was found to be 64 µg/mL.

Regarding `CCn1cc(C(=O)O)c(=O)c2cc(F)c(N3CCN(Cc4cnc(C)c5c4COC(C)(C)O5)C(C)C3)c(F)c21.Cl` (stereo not drawn), the MIC in the test with Micrococcus luteus was 8 µg/mL; in test [1] it was 64 µg/mL; with Staphylococcus aureus it was 16 µg/mL; in the test with Salmonella typhimurium, 2 µg/mL; in the test with Pseudomonas aeruginosa, more than 64 µg/mL; in the test with Bacillus subtilis, 2 µg/mL. In the test with Escherichia coli, the MIC is more than 64 µg/mL.

Regarding `CCCCCCCCC1OCc2c(CN3CCN(c4cc5c(cc4F)c(=O)c(C(=O)O)cn5C4CC4)CC3)cnc(C)c2O1` (stereo not drawn), the MIC with Micrococcus luteus was 64 µg/mL; in test [1], 64 µg/mL; in the test with Staphylococcus aureus, 32 µg/mL; with Salmonella typhimurium, 4 µg/mL; with Pseudomonas aeruginosa it was more than 64 µg/mL; with Bacillus subtilis, 2 µg/mL. Further, in the test with Escherichia coli, the MIC was more than 64 µg/mL.

For the compound `CCn1cc(C(=O)O)c(=O)c2cc(F)c(N3CCN(Cc4cnc(C)c(O)c4C)C(C)C3)c(F)c21.Cl` (stereo not drawn), the MIC was 32 µg/mL in the test on Micrococcus luteus; more than 64 µg/mL in test [1]; 2 µg/mL with Staphylococcus aureus; 2 µg/mL with Salmonella typhimurium; more than 64 µg/mL in the test on Pseudomonas aeruginosa; 1 µg/mL in the test on Bacillus subtilis. In the test with Escherichia coli, the MIC is 2 µg/mL.

In the case of `CCn1cc(C(=O)O)c(=O)c2cc(F)c(N3CCN(Cc4nc(C)c5c(c4CO)COC(C)(C)O5)C(C)C3)c(F)c21` (stereo not drawn), the MIC was more than 64 µg/mL in the test with Micrococcus luteus; 16 µg/mL in test [1]; 64 µg/mL in the test on Staphylococcus aureus; 2 µg/mL with Salmonella typhimurium; more than 64 µg/mL in the test on Pseudomonas aeruginosa; 4 µg/mL in the test with Bacillus subtilis. Besides, the MIC in the test on Escherichia coli is 8 µg/mL.

As for `CCn1cc(C(=O)O)c(=O)c2cc(F)c(N3CCN(Cc4cnc(C)c(O)c4C)CC3)cc21.Cl`, the MIC in the test with Micrococcus luteus was 8 µg/mL; in test [1], 16 µg/mL; in the test on Staphylococcus aureus, 4 µg/mL; in the test on Salmonella typhimurium it was 64 µg/mL; in the test on Pseudomonas aeruginosa, more than 64 µg/mL; with Bacillus subtilis, 2 µg/mL. Also, the MIC in the test with Escherichia coli amounted to 2 µg/mL.

Turning to `Cc1ncc(CN2CCN(c3cc4c(cc3F)c(=O)c(C(=O)O)cn4C3CC3)CC2)c2c1OC(C)(C)OC2.Cl`, the MIC is 32 µg/mL in the test on Micrococcus luteus; 16 µg/mL in test [1]; 32 µg/mL in the test on Staphylococcus aureus; 4 µg/mL in the test with Salmonella typhimurium; more than 64 µg/mL in the test with Pseudomonas aeruginosa; 2 µg/mL in the test with Bacillus subtilis. In addition, the MIC in the test with Escherichia coli was 64 µg/mL.

Consider `CCCC1OCc2c(CN3CCN(c4cc5c(cc4F)c(=O)c(C(=O)O)cn5CC)CC3)cnc(C)c2O1` (stereo not drawn), for which the MIC with Micrococcus luteus is 64 µg/mL; in test [1], 32 µg/mL; in the test with Staphylococcus aureus, 16 µg/mL; with Salmonella typhimurium it was 2 µg/mL; with Pseudomonas aeruginosa, more than 64 µg/mL; in the test with Bacillus subtilis it was 2 µg/mL. The MIC in the test with Escherichia coli is more than 64 µg/mL.

Regarding `CCn1cc(C(=O)O)c(=O)c2cc(F)c(N3CCN(Cc4cnc(C)c5c4COC(C)O5)C(C)C3)c(F)c21` (stereo not drawn), the MIC in the test on Micrococcus luteus was more than 64 µg/mL; in test [1], 8 µg/mL; in the test on Staphylococcus aureus, 2 µg/mL; with Salmonella typhimurium, 2 µg/mL; in the test on Pseudomonas aeruginosa, 16 µg/mL; with Bacillus subtilis it was 2 µg/mL. Further, in the test with Escherichia coli, the MIC is more than 64 µg/mL.

In the case of `CCn1cc(C(=O)O)c(=O)c2cc(F)c(N3CCN(Cc4c(CO)nc(C)c(O)c4CO)CC3)cc21.Cl`, the MIC with Micrococcus luteus was 16 µg/mL; in test [1], 16 µg/mL; in the test with Staphylococcus aureus, 8 µg/mL; in the test with Salmonella typhimurium, 4 µg/mL; in the test on Pseudomonas aeruginosa, more than 64 µg/mL; in the test on Bacillus subtilis it was 8 µg/mL. In addition, the MIC in the test on Escherichia coli came to 8 µg/mL.

As for `CCCCCCCCC1OCc2c(CN3CCN(c4cc5c(cc4F)c(=O)c(C(=O)O)cn5CC)CC3)cnc(C)c2O1` (stereo not drawn), the MIC with Micrococcus luteus was more than 64 µg/mL; in test [1], more than 64 µg/mL; in the test on Staphylococcus aureus it was more than 64 µg/mL; with Salmonella typhimurium, more than 64 µg/mL; in the test with Pseudomonas aeruginosa, more than 64 µg/mL; in the test on Bacillus subtilis it was 64 µg/mL. Moreover, the MIC in the test with Escherichia coli was more than 64 µg/mL.

`CCCC1OCc2c(CN3CCN(c4c(F)cc5c(=O)c(C(=O)O)cn(CC)c5c4F)CC3C)cnc(C)c2O1` (stereo not drawn): the MIC was 16 µg/mL in the test with Micrococcus luteus; 8 µg/mL in test [1]; 16 µg/mL in the test on Staphylococcus aureus; 2 µg/mL with Salmonella typhimurium; more than 64 µg/mL in the test on Pseudomonas aeruginosa; 2 µg/mL with Bacillus subtilis. Further, the MIC in the test with Escherichia coli was more than 64 µg/mL.

Regarding `COc1c(N2C[C@@H]3CCCN(Cc4cnc(C)c5c4COC(C)O5)[C@@H]3C2)c(F)cc2c(=O)c(C(=O)O)cn(C3CC3)c12` (stereo partly drawn), the MIC was 4 µg/mL with Micrococcus luteus; 4 µg/mL in test [1]; 1 µg/mL with Staphylococcus aureus; 4 µg/mL with Salmonella typhimurium; more than 64 µg/mL in the test on Pseudomonas aeruginosa; 1 µg/mL in the test with Bacillus subtilis. In addition, in the test on Escherichia coli, the MIC came out at 16 µg/mL.
